We go through 30 compounds from ChEMBL document CHEMBL4431312, “Development of an Orally Available and Central Nervous System (CNS) Penetrant Toxoplasma gondii Calcium-Dependent Protein Kinase 1 (TgCDPK1) Inhibitor with Minimal Human Ether-a-go-go-Related Gene (hERG) Activity for the Treatment of Toxoplasmosis” (J Med Chem, 2016).

The target of data set [1] is Proto-oncogene tyrosine-protein kinase Src (Gallus gallus, UniProt P00523).
Data set [2] addresses Voltage-gated inwardly rectifying potassium channel KCNH2 (Homo sapiens, UniProt Q12809).
For data set [3] the following is noted: mouse, in vivo, po, 10 mg/kg.
A short description of data set [4]: in vivo. The following applies: BALB/c, mouse, plasma, po, 10 mg/kg.
The nature of data set [5]: in vivo. To be noted: BALB/c, mouse, plasma, po, 10 mg/kg. This is another data set of the same source.
A short description of data set [6]: in vitro. The following applies: human, HepG2 cells.
A short description of data set [7]: in vitro. To be noted: human, CRL8155 cells.
For data set [8] the following is noted: buffer, pH 6.5.
The nature of data set [9]: in vivo. To be noted: BALB/c, mouse, plasma, po, 10 mg/kg. The source holds these as a separate data set.
Data set [10] is described as follows: in vivo. To be noted: BALB/c, mouse, plasma, po, 10 mg/kg. The source holds these as a separate data set.
Data set [11] deals with T1, Calmodulin-domain protein kinase 1 (Toxoplasma gondii, UniProt Q9BJF5).
T1 sequence (Q9BJF5 whole entry): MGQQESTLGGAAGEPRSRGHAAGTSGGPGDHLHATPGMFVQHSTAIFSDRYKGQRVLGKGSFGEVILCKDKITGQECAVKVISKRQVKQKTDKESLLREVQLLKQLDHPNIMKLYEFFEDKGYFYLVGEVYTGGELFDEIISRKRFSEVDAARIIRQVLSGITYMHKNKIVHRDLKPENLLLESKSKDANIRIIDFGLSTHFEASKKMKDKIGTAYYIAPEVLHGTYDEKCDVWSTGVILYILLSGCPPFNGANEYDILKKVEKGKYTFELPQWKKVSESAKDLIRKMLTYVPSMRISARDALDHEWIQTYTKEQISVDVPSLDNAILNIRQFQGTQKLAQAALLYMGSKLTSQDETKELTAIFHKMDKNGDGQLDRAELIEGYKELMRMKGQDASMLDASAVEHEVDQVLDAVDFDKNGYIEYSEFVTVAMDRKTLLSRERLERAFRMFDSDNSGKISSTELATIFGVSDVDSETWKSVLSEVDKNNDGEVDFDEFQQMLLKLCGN

Data set [12] can be described thus: in vivo. To be noted: BALB/c, mouse, plasma, po, 10 mg/kg. The source holds these as a separate data set.
The conditions of data set [13]: mouse, in vivo, po, 10 mg/kg. The source holds these as a separate data set.
Data set [14] deals with Toxoplasma gondii. Kind of data set: microbe, parasite or virus in culture. To be noted: 44 h.

Values after ≈ are worked out from the molar mass of the structure shown. Bounds are passed on as bounds.

Voltage-gated inwardly rectifying potassium channel KCNH2, sequence (Q12809 whole entry): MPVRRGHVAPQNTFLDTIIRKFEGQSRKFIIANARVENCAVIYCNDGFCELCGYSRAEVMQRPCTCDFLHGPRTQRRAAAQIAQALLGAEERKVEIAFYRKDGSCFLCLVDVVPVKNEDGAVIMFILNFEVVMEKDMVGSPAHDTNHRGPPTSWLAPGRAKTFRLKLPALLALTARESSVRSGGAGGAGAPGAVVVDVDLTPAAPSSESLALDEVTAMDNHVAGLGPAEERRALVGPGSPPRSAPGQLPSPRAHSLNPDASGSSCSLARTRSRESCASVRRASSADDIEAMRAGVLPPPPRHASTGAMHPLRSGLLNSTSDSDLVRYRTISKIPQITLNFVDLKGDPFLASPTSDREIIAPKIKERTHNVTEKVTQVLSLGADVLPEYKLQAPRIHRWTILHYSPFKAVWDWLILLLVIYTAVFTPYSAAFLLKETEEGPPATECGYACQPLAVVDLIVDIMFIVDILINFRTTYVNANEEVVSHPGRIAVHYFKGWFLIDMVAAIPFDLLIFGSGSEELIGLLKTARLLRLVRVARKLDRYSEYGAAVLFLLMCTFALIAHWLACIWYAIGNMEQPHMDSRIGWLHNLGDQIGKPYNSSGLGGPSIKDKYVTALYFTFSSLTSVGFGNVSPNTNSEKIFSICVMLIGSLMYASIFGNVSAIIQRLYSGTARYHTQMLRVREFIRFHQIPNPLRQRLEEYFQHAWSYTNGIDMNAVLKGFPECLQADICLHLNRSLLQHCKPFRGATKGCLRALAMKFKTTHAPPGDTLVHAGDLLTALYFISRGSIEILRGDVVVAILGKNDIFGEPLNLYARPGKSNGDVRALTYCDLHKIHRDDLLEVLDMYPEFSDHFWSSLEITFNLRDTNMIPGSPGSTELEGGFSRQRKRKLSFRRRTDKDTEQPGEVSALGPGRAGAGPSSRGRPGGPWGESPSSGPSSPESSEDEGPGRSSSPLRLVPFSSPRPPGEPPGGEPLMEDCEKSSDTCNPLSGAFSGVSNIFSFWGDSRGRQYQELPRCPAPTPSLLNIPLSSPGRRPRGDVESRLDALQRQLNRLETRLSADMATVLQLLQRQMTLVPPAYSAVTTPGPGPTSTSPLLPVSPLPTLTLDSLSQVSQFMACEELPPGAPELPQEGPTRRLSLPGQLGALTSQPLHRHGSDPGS

For `CCOc1ccc2cc(-c3nn(CC4CCN(C)CC4)c4ncnc(N)c34)ccc2c1`, the concentration for half-maximal inhibition (IC50) (commonly the midpoint of a concentration-inhibition curve) is greater than 10 µM in data set [1] and 0.4 µM in data set [2]. Besides, the peak level in [3] (Cmax) was 750 nM. Moreover, the Tmax – broadly, the time from dosing to the highest level – in data set [4] is 2 h. For the same compound, in [5], the CL/F (in general, clearance divided by bioavailability, as obtained after extravascular dosing) came out at 0.7 mL/min. For the same compound, the GI50 at 48 h in data set [6] and in data set [7] was greater than 10 µM throughout.
`CCOc1ccc2cc(-c3nn(CC4CCN(C(C)=O)CC4)c4ncnc(N)c34)ccc2c1`: the IC50 in data set [1] and in [2] was greater than 10 µM throughout. Further, in [8], the solubility – broadly, the dissolved amount per volume that the medium holds – came out at 48 µM (≈ 21.3 µg/mL). Also, the Cmax – broadly, the highest concentration seen after dosing – in data set [9] is 890 nM. Further, the AUC(0-inf) – broadly, the area under the concentration-time curve extrapolated to infinity – in data set [10] is 1.57 µM·h. In addition, the CL/F in data set [5] was 2.5 mL/min. The GI50 at 48 h in [6] and in data set [7] was greater than 10 µM each time.
Take `CN1CCC(Cn2nc(-c3ccc4cc(OC5COC5)ccc4c3)c3c(N)ncnc32)CC1`: the IC50 was 0.01 µM in data set [11] and greater than 10 µM in data set [1]. The GI50 at 48 h in data set [6] and in data set [7] was greater than 10 µM each time.
On to `CC1(Cn2nc(-c3ccc4cc(OC5CC5)ccc4c3)c3c(N)ncnc32)COC1`, for which the IC50 in data set [11] was 0.0021 µM; in data set [1] it was greater than 10 µM; in [2] it was 1.9 µM. In addition, the GI50 at 48 h in data set [6] and in data set [7] was greater than 10 µM throughout.
With `CC(C)(CO)Cn1nc(-c2ccc3nc(OCC(F)(F)F)ccc3c2)c2c(N)ncnc21`, the IC50 in [11] was 0.017 µM; in [1], greater than 10 µM. Moreover, the GI50 at 48 h in [6] and in data set [7] was greater than 10 µM in each case.
On to `CN(C)CC(C)(C)Cn1nc(-c2ccc3nc(OC4CC4)ccc3c2)c2c(N)ncnc21`, for which the IC50 is greater than 10 µM in data set [1] and 0.082 µM in [2]. Moreover, the GI50 at 48 h in [6] and in data set [7] was greater than 10 µM each time.
As to `CN1CCC(Cn2nc(-c3ccc4cc(OC5CCC5)ccc4c3)c3c(N)ncnc32)CC1`, the 50% inhibitory concentration (IC50) in data set [1] is greater than 10 µM; in data set [2], 0.2 µM. Moreover, the GI50 at 48 h in data set [6] and in data set [7] was greater than 10 µM each time.
Regarding `CCOc1ccc2cc(-c3nn(CC(C)(C)O)c4ncnc(N)c34)ccc2n1`, the concentration for half-maximal inhibition (IC50) in data set [1] and in data set [2] was greater than 10 µM throughout. Moreover, the CL/F in data set [5] was 0.2 mL/min. Besides, the GI50 at 48 h in data set [6] and in [7] was greater than 10 µM each time.
Consider `CCOc1ccc2cc(-c3nn(CC4CCN(C(C)C)CC4)c4ncnc(N)c34)ccc2c1`, for which the concentration for half-maximal inhibition (IC50) in [11] is 0.01 µM; in [1], greater than 10 µM; in data set [2], 0.3 µM. The GI50 at 48 h in data set [6] and in [7] was greater than 10 µM in each case.
Take `CN1CCC(Cn2nc(-c3ccc4nc(OCC(F)(F)F)ccc4c3)c3c(N)ncnc32)CC1`: in data set [2], half-maximal inhibition (IC50) was put at 0.5 µM.
In the case of `CC(C)Cn1nc(-c2ccc3cc(OC4CC4)ccc3c2)c2c(N)ncnc21`, the IC50 in data set [11] was 0.0011 µM; in data set [1], 3.7 µM; in [2] it was greater than 10 µM. The GI50 (as a rule, the concentration giving 50% growth inhibition) at 48 h in data set [7] is greater than 10 µM.
In data set [1], `CCOc1ccc2cc(-c3nn(CC(C)(C)O)c4ncnc(N)c34)ccc2c1` came in with an IC50 greater than 10 µM. The GI50 at 48 h in [6] and in data set [7] was greater than 10 µM each time.
In data set [1], `COCCOc1ccc2cc(-c3nn(CC4CCN(C)CC4)c4ncnc(N)c34)ccc2c1` came in with a half-inhibitory concentration (IC50) greater than 10 µM. For the same compound, the GI50 at 48 h in data set [6] and in [7] was greater than 10 µM in each case.
On to `CC(C)(CO)Cn1nc(-c2ccc3nc(OC4CC4)ccc3c2)c2c(N)ncnc21`, for which the IC50 in data set [1] is 7.4 µM; in [2], greater than 10 µM. Moreover, in [8], the solubility was 8 µM (≈ 3.24 µg/mL). Besides, the Cmax in [9] came out at 3900 nM. This compound gave an AUC(0-inf) in [10] of 0.065 µM·h. Further, in data set [12], the half-life (in general, the time needed for the level to fall by half in the phase considered) amounted to 0.683 h. Besides, the CL/F in data set [5] was determined as 21 mL/min. For the same compound, the GI50 at 48 h in data set [6] and in [7] was greater than 10 µM each time.
On to `Nc1ncnc2c1c(-c1ccc3nc(OC4CC4)ccc3c1)nn2CC1CCOCC1`, for which the IC50 in [1] and in [2] was greater than 10 µM each time. Also, the Tmax in [13] is 0.5 h. The concentration in [3] peaked (Cmax) at 880 nM. In [10], this compound had an AUC(0-inf) of 1.12 µM·h. In data set [5], this compound gave a CL/F of 110 mL/min. Also, the concentration for 50% growth inhibition (GI50) at 48 h in data set [6] and in data set [7] was greater than 10 µM each time. Moreover, the response in data set [14] was half-maximal at 0.081 µM (EC50).
As for `CN1CCC(Cn2nc(-c3ccc4nc(OC5CC5)ccc4c3)c3c(N)ncnc32)CC1`, the IC50 in [1] is greater than 10 µM; in data set [2], 1.7 µM. The compound further gave a GI50 at 48 h in [6] greater than 10 µM.
As for `CCOc1ccc2cc(-c3nn(CC4CCOCC4)c4ncnc(N)c34)ccc2c1`, the IC50 in [11] is 0.002 µM; in data set [1], greater than 10 µM; in data set [2], greater than 10 µM. Moreover, the GI50 at 48 h in [6] and in [7] was greater than 10 µM each time.
Turning to `CN1CCC(Cn2nc(-c3ccc4cc(OC5CC5)ccc4c3)c3c(N)ncnc32)CC1`, the IC50 was 0.0015 µM in [11], greater than 10 µM in data set [1] and 0.37 µM in data set [2]. The compound also displayed a GI50 at 48 h in data set [7] greater than 10 µM.
In the case of `CC(C)(CO)Cn1nc(-c2ccc3cc(OC4CC4)ccc3c2)c2c(N)ncnc21`, the results for the 50% inhibitory concentration (IC50) in data set [1] and in [2] were 3.1 µM and greater than 10 µM, respectively. In addition, the Cmax in data set [3] stood at 390 nM. In [10], this compound showed an AUC(0-inf) of 0.517 µM·h. The compound further showed a CL/F in [5] of 6.7 mL/min. The GI50 at 48 h in data set [6] and in data set [7] was greater than 10 µM each time. Also, in data set [14], the response was half-maximal at 0.056 µM (EC50).
Take `CC1(Cn2nc(-c3ccc4nc(OC5CC5)ccc4c3)c3c(N)ncnc32)COC1`: the IC50 in data set [1] and in data set [2] was greater than 10 µM each time. For the same compound, the GI50 at 48 h in data set [6] and in [7] was greater than 10 µM in each case.
For the compound `CC(C)Cn1nc(-c2ccc3nc(OC4CC4)ccc3c2)c2c(N)ncnc21`, the IC50 in data set [1] and in data set [2] was greater than 10 µM in each case. In addition, the concentration for 50% growth inhibition (GI50) at 48 h in data set [6] and in [7] was greater than 10 µM throughout.
On to `CCOc1ccc2cc(-c3nn(CC4CN(C)C4)c4ncnc(N)c34)ccc2c1`, for which the IC50 was 0.006 µM in data set [11], greater than 10 µM in data set [1] and 1.4 µM in data set [2]. The GI50 at 48 h in data set [6] and in data set [7] was greater than 10 µM throughout.
Take `Nc1ncnc2c1c(-c1ccc3cc(OC4CC4)ccc3c1)nn2CC1CCOCC1`: the figures for the IC50 in data set [11], in data set [1] and in data set [2] were 0.0024 µM, 0.37 µM and greater than 10 µM, respectively. For the same compound, the GI50 at 48 h in data set [6] and in data set [7] was greater than 10 µM in each case.
`CN1CCC(Cn2nc(-c3ccc4cc(OCC5CC5)ccc4c3)c3c(N)ncnc32)CC1`: the IC50 in [1] was greater than 10 µM; in data set [2], 0.9 µM. Besides, the concentration for 50% growth inhibition (GI50) at 48 h in [6] and in data set [7] was greater than 10 µM throughout.
Take `CCOc1ccc2cc(-c3nn(CC4CCOCC4)c4ncnc(N)c34)ccc2n1`: the IC50 in data set [1] and in data set [2] was greater than 10 µM throughout. In addition, the concentration for 50% growth inhibition (GI50) at 48 h in data set [6] and in data set [7] was greater than 10 µM throughout.
For the compound `CCOc1ccc2cc(-c3nn(CC4CCN(C)CC4)c4ncnc(N)c34)ccc2n1`, the IC50 was 0.0061 µM in data set [11], greater than 10 µM in [1] and 10 µM in [2]. Moreover, the Tmax in [4] is 3.33 h. The compound further registered a Cmax in [9] of 260 nM. This compound also came in with a half-life in data set [12] of 3.72 h. The compound further yielded a CL/F in [5] of 1.8 mL/min. Besides, the GI50 at 48 h in data set [6] and in [7] was greater than 10 µM in each case.
On to `CCOc1ccc2cc(-c3nn(CC4CN(C(C)=O)C4)c4ncnc(N)c34)ccc2c1`, for which the IC50 is 0.004 µM in data set [11], 1.1 µM in data set [1] and greater than 10 µM in data set [2]. In addition, the 50% growth inhibitory concentration (GI50) at 48 h in [6] and in data set [7] was greater than 10 µM in each case.
Consider `Nc1ncnc2c1c(-c1ccc3cc(OC4CC4)ccc3c1)nn2CC(O)(C(F)(F)F)C(F)(F)F`, for which the IC50 in [1] is greater than 10 µM. Also, the GI50 at 48 h in data set [6] and in data set [7] was greater than 10 µM throughout.
With `CCOc1ccc2cc(-c3nn(CC4CNC4)c4ncnc(N)c34)ccc2c1`, the IC50 in data set [11] is 0.0032 µM; in data set [1], greater than 10 µM; in [2], 1.7 µM. The GI50 at 48 h in data set [6] and in [7] was greater than 10 µM in each case.
As for `CCOc1ccc2cc(-c3nn(CC(C)C)c4ncnc(N)c34)ccc2c1`, the IC50 in [1] and in data set [2] was greater than 10 µM throughout. Besides, the GI50 at 48 h in [6] and in data set [7] was greater than 10 µM each time.
